Laboratory results: patent US12410208B2, “(2-acetamidyl)thio-beta-D-galactopyranoside derivatives” (Idorsia Pharmaceuticals Ltd, priority 2020, dated 2025)
pIC50: −log10 of the molar value. Read-outs that look alike come from different tables or passages of the source.

Tests used:
[1] = target: biotinylated human Gal-3 (hGal-3) (Homo sapiens, UniProt P17931); assay: Competitive binding assay: biotinylated hGal-3 binding to microplate-adsorbed asialofetuin (ASF), spectrophotometric
In short: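 Competitive binding of biotinylated hGal-3 to plate-adsorbed asialofetuin was measured with serially diluted compounds over 3 h at 4° C. Bound protein was detected with streptavidin-peroxidase and ABTS substrate by absorbance. IC50 values are means of several measurements.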

human Gal-1 (hGal-1) = human Gal-1 (hGal-1) (Homo sapiens, UniProt P09382); assay: Competitive binding assay: biotinylated hGal-1 binding to microplate-adsorbed asialofetuin (ASF), spectrophotometric; conditions: hGal-1 binding to asialofetuin; Table 15; R and S epimers of selected Examples also listed; read-out: IC50 (Galectin-1 inhibition)
Sequence of human Gal-1 (hGal-1) (P09382 whole entry): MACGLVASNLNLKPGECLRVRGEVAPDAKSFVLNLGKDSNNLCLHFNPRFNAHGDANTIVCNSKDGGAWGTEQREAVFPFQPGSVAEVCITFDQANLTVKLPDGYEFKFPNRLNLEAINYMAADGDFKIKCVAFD
In short: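 Biotinylated hGal-1 (300-1000 ng/mL) incubated with compound on asialofetuin-coated plates 3 hours at 4 °C, washed, then streptavidin-peroxidase (80 ng/mL) 1 hour at 4 °C. ABTS substrate read spectrophotometrically; IC50 reported as mean of several measurements.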

[2] = Gal-3 inhibition, Table 5, read-out: IC50
[3] = Table 9, hGal-3, read-out: IC50 (Gal-3 inhibition)
[4] = Table 8, hGal-3, read-out: IC50 (Gal-3 inhibition)
[5] = Gal-3 inhibition, Table 4, read-out: IC50

Sequence of biotinylated human Gal-3 (hGal-3) (P17931 whole entry): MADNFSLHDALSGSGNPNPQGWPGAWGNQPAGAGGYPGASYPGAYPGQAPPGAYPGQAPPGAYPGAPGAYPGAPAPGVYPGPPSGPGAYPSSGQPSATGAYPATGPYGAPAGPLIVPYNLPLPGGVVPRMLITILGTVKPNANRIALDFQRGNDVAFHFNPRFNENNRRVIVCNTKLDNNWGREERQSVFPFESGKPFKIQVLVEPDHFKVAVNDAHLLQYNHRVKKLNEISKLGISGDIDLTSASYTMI

Row | pIC50 (human Gal-1 (hGal-1)) | Compound | other results
1 | < 4.40 | CCN(C)C(=O)[C@H](S[C@@H]1O[C@H](CO)[C@H](O)[C@H](n2cc(-c3cc(F)c(F)c(F)c3)nn2)[C@H]1O)C1(O)CCOCC1 [Example 2.41.203R., (R)-2-(((2S,3R,4S,5R,6R)-3,5-Dihydroxy-6-(hydroxymethyl)-4-(4-(3,4,5-trifluorophenyl)-1H-1,2,3-triazol-1-yl)tetrahydro-2H-pyran-2-yl)thio)-N-ethyl-2-(4-hydroxytetrahydro-2H-pyran-4-yl)-N-methylacetamide] | pIC50 [1, 2]: 5.35
2 | 5.15 | CO[C@@H]1[C@@H](n2cc(-c3cc(F)c(F)c(F)c3)nn2)[C@@H](O)[C@@H](CO)O[C@H]1S[C@@H](C(=O)N(C)c1ccccn1)C1(O)CCC(F)(F)CC1 [Example 2.41.233R.I.] | pIC50 [1, 3]: 5.14
3 | 7.52 | CN(C(=O)[C@@H](S[C@@H]1O[C@H](CO)[C@H](O)[C@H](n2cc(-c3cc(F)c(F)c(F)c3)nn2)[C@H]1O)C1(O)CCOCC1)c1ccccn1 [Example 2.41.233S.] | pIC50 [1, 3]: 7.40
4 | 7.10 | CCN(C)C(=O)[C@H](S[C@@H]1O[C@H](CO)[C@H](O)[C@H](n2cc(-c3cc(F)c(F)c(F)c3)nn2)[C@H]1OC)C1(O)CCN(C(=O)NC2CC2)CC1 [Example 2.49.226R.I., N-Cyclopropyl-4-((R)-2-(ethyl(methyl)amino)-1-(((2S,3R,4S,5R,6R)-5-hydroxy-6-(hydroxymethyl)-3-methoxy-4-(4-(3,4,5-trifluorophenyl)-1H-1,2,3-triazol-1-yl)tetrahydro-2H-pyran-2-yl)thio)-2-oxoethyl)-4-hydroxypiperidine-1-carboxamide] | pIC50 [1, 4]: 5.76
5 | 5.01 | CN(C(=O)[C@H](S[C@@H]1O[C@H](CO)[C@H](O)[C@H](n2cc(-c3cc(F)c(F)c(F)c3)nn2)[C@H]1O)C1(O)CCOCC1)c1ccccn1 [Example 2.41.233R.] | pIC50 [1, 3]: 5.07
6 | 6.64 | O=C([C@@H](S[C@@H]1O[C@H](CO)[C@H](O)[C@H](n2cc(-c3cc(F)c(F)c(F)c3)nn2)[C@H]1O)C1(O)CCC(F)(F)CC1)N1CC(F)(F)C1 [Example 2.44.227S., (S)-2-(4,4-Difluoro-1-hydroxycyclohexyl)-1-(3,3-difluoroazetidin-1-yl)-2-(((2S,3R,4S,5R,6R)-3,5-dihydroxy-6-(hydroxymethyl)-4-(4-(3,4,5-trifluorophenyl)-1H-1,2,3-triazol-1-yl)tetrahydro-2H-pyran-2-yl)thio)ethan-1-one] | pIC50 [1, 2]: 7.00
7 | 6.77 | O=C([C@@H](S[C@@H]1O[C@H](CO)[C@H](O)[C@H](n2cc(-c3cc(F)c(F)c(F)c3)nn2)[C@H]1O)C1(O)CCOCC1)N1CCc2ccccc21 [Example 2.41.209S., (S)-2-(((2S,3R,4S,5R,6R)-3,5-Dihydroxy-6-(hydroxymethyl)-4-(4-(3,4,5-trifluorophenyl)-1H-1,2,3-triazol-1-yl)tetrahydro-2H-pyran-2-yl)thio)-2-(4-hydroxytetrahydro-2H-pyran-4-yl)-1-(indolin-1-yl)ethan-1-one] | pIC50 [1, 5]: 7.00

Second part, the molecule before the results:

Row | Compound | pIC50 (human Gal-1 (hGal-1)) | other results
8 | CCN(C)C(=O)C(S[C@@H]1O[C@H](CO)[C@H](O)[C@H](n2cc(-c3cc(F)cc(F)c3)nn2)[C@H]1O)C1(O)CCOCC1 (stereo partly drawn) [Example 10.41.203., 2-(((2S,3R,4S,5R,6R)-4-(4-(3,5-Difluorophenyl)-1H-1,2,3-triazol-1-yl)-3,5-dihydroxy-6-(hydroxymethyl)tetrahydro-2H-pyran-2-yl)thio)-N-ethyl-2-(4-hydroxytetrahydro-2H-pyran-4-yl)-N-methylacetamide] | 6.57 | pIC50 ([1]; Table 11, hGal-3, read-out: IC50 (Gal-3 inhibition)): 7.00
9 | O=C(C(S[C@@H]1O[C@H](CO)[C@H](O)[C@H](n2cc(-c3cc(F)c(F)c(F)c3)nn2)[C@H]1O)C1(O)CCC1)N1CCC1 (stereo partly drawn) [Example 2.34.206., 1-(Azetidin-1-yl)-2-(((2S,3R,4S,5R,6R)-3,5-dihydroxy-6-(hydroxymethyl)-4-(4-(3,4,5-trifluorophenyl)-1H-1,2,3-triazol-1-yl)tetrahydro-2H-pyran-2-yl)thio)-2-(1-hydroxycyclobutyl)ethan-1-one] | 5.57 | pIC50 [1, 2]: 5.92
10 | CCN(C)C(=O)[C@H](S[C@@H]1O[C@H](CO)[C@H](O)[C@H](n2cc(-c3cc(F)c(F)c(F)c3)nn2)[C@H]1O)C1(O)CCN(S(=O)(=O)C2CC2)CC1 [Example 2.51.203R., (R)-2-(1-(Cyclopropylsulfonyl)-4-hydroxypiperidin-4-yl)-2-(((2S,3R,4S,5R,6R)-3,5-dihydroxy-6-(hydroxymethyl)-4-(4-(3,4,5-trifluorophenyl)-1H-1,2,3-triazol-1-yl)tetrahydro-2H-pyran-2-yl)thio)-N-ethyl-N-methylacetamide] | 5.12 | pIC50 [1, 4]: 5.30
11 | O=C([C@H](S[C@@H]1O[C@H](CO)[C@H](O)[C@H](n2cc(-c3cc(F)c(F)c(F)c3)nn2)[C@H]1O)C1(O)CCOCC1)N1CCCCC1 [Example 2.41.208R., (R)-2-(((2S,3R,4S,5R,6R)-3,5-Dihydroxy-6-(hydroxymethyl)-4-(4-(3,4,5-trifluorophenyl)-1H-1,2,3-triazol-1-yl)tetrahydro-2H-pyran-2-yl)thio)-2-(4-hydroxytetrahydro-2H-pyran-4-yl)-1-(piperidin-1-yl)ethan-1-one] | 4.49 | pIC50 [1, 5]: 5.78
12 | CN(CC1CCCC1)C(=O)[C@H](S[C@@H]1O[C@H](CO)[C@H](O)[C@H](n2cc(-c3cc(F)c(F)c(F)c3)nn2)[C@H]1O)C1(O)CCOCC1 [Example 2.41.212., (R)-N-(cyclopentylmethyl)-2-(((2S,3R,4S,5R,6R)-3,5-dihydroxy-6-(hydroxymethyl)-4-(4-(3,4,5-trifluorophenyl)-1H-1,2,3-triazol-1-yl)tetrahydro-2H-pyran-2-yl)thio)-2-(4-hydroxytetrahydro-2H-pyran-4-yl)-N-methylacetamide] | 6.70 | pIC50 [1, 5]: 7.10
13 | CCN(C)C(=O)C(S[C@@H]1O[C@H](CO)[C@H](O)[C@H](n2cc(-c3cc(F)c(F)c(F)c3)nn2)[C@H]1O)C1(O)CCN(C(=O)NC2CC2)CC1 (stereo partly drawn) [Example 2.49.203., N-Cyclopropyl-4-(1-(((2S,3R,4S,5R,6R)-3,5-dihydroxy-6-(hydroxymethyl)-4-(4-(3,4,5-trifluorophenyl)-1H-1,2,3-triazol-1-yl)tetrahydro-2H-pyran-2-yl)thio)-2-(ethyl(methyl)amino)-2-oxoethyl)-4-hydroxypiperidine-1-carboxamide] | 7.15 | pIC50 [1, 4]: 7.30
14 | O=C([C@@H](S[C@@H]1O[C@H](CO)[C@H](O)[C@H](n2cc(-c3cc(F)c(F)c(F)c3)nn2)[C@H]1O)C1(O)CCC1)N1CCC1 [Example 2.34.206S., (S)-1-(Azetidin-1-yl)-2-(((2S,3R,4S,5R,6R)-3,5-dihydroxy-6-(hydroxymethyl)-4-(4-(3,4,5-trifluorophenyl)-1H-1,2,3-triazol-1-yl)tetrahydro-2H-pyran-2-yl)thio)-2-(1-hydroxycyclobutyl)ethan-1-one] | 6.21 | pIC50 [1, 2]: 6.47
15 | CCN(C)C(=O)[C@@H](S[C@@H]1O[C@H](CO)[C@H](O)[C@H](n2cc(-c3cc(F)c(F)c(F)c3)nn2)[C@H]1O)C(C)(C)O [Example 2.31.203S., (S)-2-(((2S,3R,4S,5R,6R)-3,5-Dihydroxy-6-(hydroxymethyl)-4-(4-(3,4,5-trifluorophenyl)-1H-1,2,3-triazol-1-yl)tetrahydro-2H-pyran-2-yl)thio)-N-ethyl-3-hydroxy-N,3-dimethylbutanamide] | 6.62 | pIC50 ([1]; Gal-3 inhibition, Table 3, read-out: IC50): 7.15
